Results: US6673839B1, “Pharmaceutical compositions with antitumour activity” (Universita' Degli Studi di Catania, priority 1998, dated 2004)
Where a name gives a salt, the structure may show the parent alone.

Tests used:
[1] = tested on: tumour cells from lymph nodes; experiment: Effects of L-aC on cell cycle of cultured secondary human tumour cells; type: cell-based; settings: 20 mg/ml
Method: L-aC was tested on tumour cells from lymph nodes taken from the same patients from which the primitive neoplasms had been taken.

[2] = tested on: Yoshida ascitogenic tumour; experiment: Sprague-Dowley rats inoculated with Yoshida ascitogenic tumour, treatment; type: in vivo; design: surviving animals (mortality curve): unit not given here
Method: Yoshida tumour is a transplantable, ascitogenic experimental tumour consisting of histiocyte-like immortalized cells.
The tumour causes, on the average 7 days after the intraperitoneal inoculation in Sprague-Dowley rat, the formation of 120-150 ml of ascites which reappears 3-4 days after complete emptying of the peritoneal cavity and induces death of all the animals within 14-16 days after inoculation.
300 Sprague-Dowley rats (4 months old, mean weight: 200 g), under standard feeding and temperature conditions (25° C.), were inoculated with Yoshida tumour. The onset and evolution of the tumour were checked by daily observation and weighing. One week after the inoculation of the tumour, rats were divided in 6 groups and treated as follows:
Group 1: 50 rats were subjected, on day 8 to 14, to daily emptying of 5 ml of ascitic fluid which was substituted with 5 ml of saline solution;
Group 2: 50 rats were subjected, on day 8 to 14, to daily emptying of 5 ml of ascitic fluid which was substituted with 50 mg of L-aC diluted in 5 ml of saline solution;
Group 3: 25 rats were subjected, on day 8 to 14, to daily emptying of 5 ml of ascitic fluid which was substituted with 80 mg of L-aC diluted in 5 ml of saline solution;
Group 4: 25 rats were subjected, on day 8 to 14, to daily emptying of 5 ml of ascitic fluid which was substituted with 120 mg of L-aC diluted in 5 ml of saline solution;
Group 5: 100 rats were subjected, on day 8 to 14, to evacuation on alternate days of 5 ml of ascitic fluid which was substituted with 25 mg of L-aC diluted in 5 ml of saline solution;
Group 6: 50 rats were used as control and received no treatment.

SMILES: CC(=O)OC(CC(=O)[O-])C[N+](C)(C)C [L-aC, L-acetylcarnitine hydrochloride]
- activity versus that on cells from the primitive tumours ([1]; all samples): comparable
- G1/S+G2M ratio after treatment ([1]; tumour with pre-treatment ratio 20/80): 74/26
- necroscopy finding ([2]; 6 animals sacrified at end of observation): no presence of the disease
- animals died during further treatment ([2]; 47 Group 5 survivors treated a further 2 weeks): 21
- surviving animals (mortality curve) ([2]; Group 2, 50 mg lac i.p. daily day 8-14, day 0 transplant): 50
- surviving animals (mortality curve) ([2]; Group 2, 50 mg lac i.p. daily day 8-14, day 1): 50
- surviving animals (mortality curve) ([2]; Group 2, 50 mg lac i.p. daily day 8-14, day 2): 50
- surviving animals (mortality curve) ([2]; Group 2, 50 mg lac i.p. daily day 8-14, day 3): 50
- surviving animals (mortality curve) ([2]; Group 2, 50 mg lac i.p. daily day 8-14, day 4): 50
- surviving animals (mortality curve) ([2]; Group 2, 50 mg lac i.p. daily day 8-14, day 5): 50
- surviving animals (mortality curve) ([2]; Group 2, 50 mg lac i.p. daily day 8-14, day 6): 50
- surviving animals (mortality curve) ([2]; Group 2, 50 mg lac i.p. daily day 8-14, day 7): 50
- surviving animals (mortality curve) ([2]; Group 2, 50 mg lac i.p. daily day 8-14, day 8): 42
- surviving animals (mortality curve) ([2]; Group 2, 50 mg lac i.p. daily day 8-14, day 9): 32
- surviving animals (mortality curve) ([2]; Group 2, 50 mg lac i.p. daily day 8-14, day 10): 21
- surviving animals (mortality curve) ([2]; Group 2, 50 mg lac i.p. daily day 8-14, day 11): 17
- surviving animals (mortality curve) ([2]; Group 2, 50 mg lac i.p. daily day 8-14, day 12): 12
- surviving animals (mortality curve) ([2]; Group 2, 50 mg lac i.p. daily day 8-14, day 13): 5
- surviving animals (mortality curve) ([2]; Group 2, 50 mg lac i.p. daily day 8-14, day 14): 0
- day after inoculation by which all animals died ([2]; Group 2, 50 rats, 50 mg L-aC i.p. daily day 8 to 14): ≤ 14 days
- surviving animals (mortality curve) ([2]; Group 3, 80 mg lac i.p. daily from day 8, day 0 transplant): 25
- surviving animals (mortality curve) ([2]; Group 3, 80 mg lac i.p. daily from day 8, day 1): 25
- surviving animals (mortality curve) ([2]; Group 3, 80 mg lac i.p. daily from day 8, day 2): 25
- surviving animals (mortality curve) ([2]; Group 3, 80 mg lac i.p. daily from day 8, day 3): 25
- surviving animals (mortality curve) ([2]; Group 3, 80 mg lac i.p. daily from day 8, day 4): 25
- surviving animals (mortality curve) ([2]; Group 3, 80 mg lac i.p. daily from day 8, day 5): 25
- surviving animals (mortality curve) ([2]; Group 3, 80 mg lac i.p. daily from day 8, day 6): 25
- surviving animals (mortality curve) ([2]; Group 3, 80 mg lac i.p. daily from day 8, day 7): 25
- surviving animals (mortality curve) ([2]; Group 3, 80 mg lac i.p. daily from day 8, day 8): 12
- surviving animals (mortality curve) ([2]; Group 3, 80 mg lac i.p. daily from day 8, day 9): 5
- surviving animals (mortality curve) ([2]; Group 3, 80 mg lac i.p. daily from day 8, day 10): 0
- time after 1st administration by which all animals died ([2]; Group 3, 25 rats, 80 mg L-aC i.p.): ≤ 72 h
- day after inoculation by which all animals died ([2]; Group 3, 25 rats, 80 mg L-aC i.p. daily from day 8): ≤ 10 days
- surviving animals (mortality curve) ([2]; Group 4, 120 mg lac i.p. daily from day 8, day 0 transplant): 25
- surviving animals (mortality curve) ([2]; Group 4, 120 mg lac i.p. daily from day 8, day 1): 25
- surviving animals (mortality curve) ([2]; Group 4, 120 mg lac i.p. daily from day 8, day 2): 25
- surviving animals (mortality curve) ([2]; Group 4, 120 mg lac i.p. daily from day 8, day 3): 25
- surviving animals (mortality curve) ([2]; Group 4, 120 mg lac i.p. daily from day 8, day 4): 25
- surviving animals (mortality curve) ([2]; Group 4, 120 mg lac i.p. daily from day 8, day 5): 25
- surviving animals (mortality curve) ([2]; Group 4, 120 mg lac i.p. daily from day 8, day 6): 25
- surviving animals (mortality curve) ([2]; Group 4, 120 mg lac i.p. daily from day 8, day 7): 25
- surviving animals (mortality curve) ([2]; Group 4, 120 mg lac i.p. daily from day 8, day 8): 0
- time from 1st administration by which all animals died ([2]; Group 4, 25 rats, 120 mg L-aC i.p.): ≤ 24 h
- day after inoculation by which all animals died ([2]; Group 4, 25 rats, 120 mg L-aC i.p. from day 8): ≤ 8 days
- surviving animals (mortality curve) ([2]; Group 5, 25 mg lac i.p. alternate days day 8-14, day 0 transplant): 100
- surviving animals (mortality curve) ([2]; Group 5, 25 mg lac i.p. alternate days day 8-14, day 1): 100
- surviving animals (mortality curve) ([2]; Group 5, 25 mg lac i.p. alternate days day 8-14, day 2): 100
- surviving animals (mortality curve) ([2]; Group 5, 25 mg lac i.p. alternate days day 8-14, day 3): 100
- surviving animals (mortality curve) ([2]; Group 5, 25 mg lac i.p. alternate days day 8-14, day 4): 100
- surviving animals (mortality curve) ([2]; Group 5, 25 mg lac i.p. alternate days day 8-14, day 5): 100
- surviving animals (mortality curve) ([2]; Group 5, 25 mg lac i.p. alternate days day 8-14, day 6): 100
- surviving animals (mortality curve) ([2]; Group 5, 25 mg lac i.p. alternate days day 8-14, day 7): 96
- surviving animals (mortality curve) ([2]; Group 5, 25 mg lac i.p. alternate days day 8-14, day 8): 91
- surviving animals (mortality curve) ([2]; Group 5, 25 mg lac i.p. alternate days day 8-14, day 9): 83
- surviving animals (mortality curve) ([2]; Group 5, 25 mg lac i.p. alternate days day 8-14, day 10): 79
- surviving animals (mortality curve) ([2]; Group 5, 25 mg lac i.p. alternate days day 8-14, day 11): 61
- surviving animals (mortality curve) ([2]; Group 5, 25 mg lac i.p. alternate days day 8-14, day 12): 50
- surviving animals (mortality curve) ([2]; Group 5, 25 mg lac i.p. alternate days day 8-14, day 13): 48
- surviving animals (mortality curve) ([2]; Group 5, 25 mg lac i.p. alternate days day 8-14, day 14): 47
- animals still alive ([2]; Group 5, 100 rats, 25 mg L-aC i.p. alternate days, day 15 after inoculation): 47
- ascites amount in survivors ([2]; Group 5, day 15 after inoculation): remarkable reduction of the ascites amount
- general condition of survivors ([2]; Group 5, day 28): good health
- ascitic fluid in survivors ([2]; Group 5, day 28 after inoculation): complete disappearance of the ascitic fluid
- deaths during further observation ([2]; Group 5 survivors, further 6 weeks): no deaths occurred
- animals still alive ([2]; of 47 Group 5 survivors, day 28 after inoculation): 26
